Experimental data as given in patent US9221827B2, “Antimicrobial compounds and methods of making and using the same” (Melinta Therapeutics, Inc., priority 2011, dated 2015).

System: Escherichia coli strain ATCC25922
Experiment: standard microdilution assay to determine minimum inhibitory concentrations (MICs)
Assay type: cell-based
Conditions: Escherichia coli strain ATCC25922, microdilution
In short: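 MICs come from CLSI-guided microdilution in 100 μl, run alongside reference-strain performance standards. Values appear as "+" or "−" relative to 16 micrograms/ml, with "N/A" marking missing data.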

Compound	E. coli ATCC25922 MIC
N=C(N)NCCCNCc1ccc(-n2cc3cc(-c4cc(CC5CC(N)C5)cc(C(F)(F)F)c4)[nH]c3nc2=O)cc1 (centres unmarked) [Compound 324]	+ (a “+” indicates that the compound has an MIC value of 16 micrograms/ml or less)
C[C@H](NCCCNC(=N)N)c1ccc(-n2cc3cc(-c4cc(CC5CC(N)C5)cc(C(F)(F)F)c4)[nH]c3nc2=O)cc1 (some centres unmarked) [Compound 325]	+ (a “+” indicates that the compound has an MIC value of 16 micrograms/ml or less)
C[C@@H](CN)OCc1cc(SC(F)(F)F)cc(-c2cc3cn(-c4ccc(CNCCCNC(=N)N)cc4)c(=O)nc3[nH]2)c1 [Compound 326]	+ (a “+” indicates that the compound has an MIC value of 16 micrograms/ml or less)
C[C@H](NCCCNC(=N)N)c1ccc(-n2cc3cc(-c4cc(CO[C@@H](C)CN)cc(SC(F)(F)F)c4)[nH]c3nc2=O)cc1 [Compound 327]	+ (a “+” indicates that the compound has an MIC value of 16 micrograms/ml or less)

Same assay, conditions: Escherichia coli strain ATCC25922, standard microdilution assay

Compound	E. coli ATCC25922 MIC
N=C(N)NCCCNCc1ccc(-n2cc3cc(-c4cc(CC5CC(N)C5)cc(Cl)c4F)[nH]c3nc2=O)cc1 (centres unmarked) [Compound 333]	+ (a “+” indicates that the compound has an MIC value of 16 micrograms/ml or less)
C[C@H](CCNC(=N)N)NCc1ccc(-n2cc3cc(-c4cc(CC5CC(N)C5)cc(Cl)c4F)[nH]c3nc2=O)cc1 (some centres unmarked) [Compound 334]	+ (a “+” indicates that the compound has an MIC value of 16 micrograms/ml or less)
CC(C)(N)CCCc1cc(SC(F)(F)F)cc(-c2cc3cn(-c4ccc(CN)cc4)c(=O)nc3[nH]2)c1 [Compound 335]	+ (a “+” indicates that the compound has an MIC value of 16 micrograms/ml or less)
CC(CN)SCc1cc(SC(F)(F)F)cc(-c2cc3cn(-c4ccc(CNCCCNC(=N)N)cc4)c(=O)nc3[nH]2)c1 (centres unmarked) [Compound 336]	+ (a “+” indicates that the compound has an MIC value of 16 micrograms/ml or less)
CC(CN)SCc1cc(SC(F)(F)F)cc(-c2cc3cn(-c4ccc(C(C)NCCCNC(=N)N)cc4)c(=O)nc3[nH]2)c1 (centres unmarked) [Compound 337]	+ (a “+” indicates that the compound has an MIC value of 16 micrograms/ml or less)
CN(CCCNC(=N)N)Cc1ccc(-n2cc3cc(-c4cc(CCCCN)cc(C(F)(F)F)c4)[nH]c3nc2=O)cc1 [Compound 338]	+ (a “+” indicates that the compound has an MIC value of 16 micrograms/ml or less)
C[C@H](N)CCCc1cc(-c2cc3cn(-c4ccc(CN(C)CCCNC(=N)N)cc4)c(=O)nc3[nH]2)cc(C(F)(F)F)c1 [Compound 339]	+ (a “+” indicates that the compound has an MIC value of 16 micrograms/ml or less)
CC(N)CCCc1cc(CC(F)(F)F)cc(-c2cc3cn(-c4ccc(C(C)NCCCNC(=N)N)cc4)c(=O)nc3[nH]2)c1 (centres unmarked) [Compound 340]	+ (a “+” indicates that the compound has an MIC value of 16 micrograms/ml or less)
CC[C@H](N)CCCc1cc(Cl)c(F)c(-c2cc3cn(-c4ccc(CNCCCNC(=N)N)cc4)c(=O)nc3[nH]2)c1 [Compound 341]	+ (a “+” indicates that the compound has an MIC value of 16 micrograms/ml or less)
N=C(N)NCCCNCc1ccc(-n2cc3cc(-c4cc(CCC[C@@H](N)CO)cc(Cl)c4F)[nH]c3nc2=O)cc1 [Compound 342]	+ (a “+” indicates that the compound has an MIC value of 16 micrograms/ml or less)
CC(N)CC=Cc1cc(Cl)c(F)c(-c2cc3cn(-c4ccc(C(C)NCCCNC(=N)N)cc4)c(=O)nc3[nH]2)c1 (centres unmarked) [Compound 343]	+ (a “+” indicates that the compound has an MIC value of 16 micrograms/ml or less)
C[C@H](N)COCc1cc(SC(F)(F)F)cc(-c2cc3cn(-c4ccc(CNCCCNC(=N)N)cc4)c(=O)nc3[nH]2)c1 [Compound 344]	+ (a “+” indicates that the compound has an MIC value of 16 micrograms/ml or less)
CC(N)COCc1cc(SC(F)(F)F)cc(-c2cc3cn(-c4ccc(C(C)NCCCNC(=N)N)cc4)c(=O)nc3[nH]2)c1 (centres unmarked) [Compound 345]	+ (a “+” indicates that the compound has an MIC value of 16 micrograms/ml or less)
CC(N)CCCc1cc(Cl)c(F)c(-c2cc3cn(-c4ccc(C(C)NCCCNC(N)=NCC5CC5)cc4)c(=O)nc3[nH]2)c1 (centres unmarked) [Compound 346]	+ (a “+” indicates that the compound has an MIC value of 16 micrograms/ml or less)
CC(N)CCCc1cc(Cl)c(F)c(-c2cc3cn(-c4ccc(C(C)NCCCNC(N)=NCC5(C)COC5)cc4)c(=O)nc3[nH]2)c1 (centres unmarked) [Compound 347]	+ (a “+” indicates that the compound has an MIC value of 16 micrograms/ml or less)
CN=C(N)NCCCNC(C)c1ccc(-n2cc3cc(-c4cc(CCCC(C)N)cc(Cl)c4F)[nH]c3nc2=O)cc1 (centres unmarked) [Compound 348]	+ (a “+” indicates that the compound has an MIC value of 16 micrograms/ml or less)
N=C(N)NCCCNCc1ccc(-n2cc3cc(-c4cc(CC5CC(CN)C5)cc(C(F)(F)F)c4)[nH]c3nc2=O)cc1 (centres unmarked) [Compound 349]	+ (a “+” indicates that the compound has an MIC value of 16 micrograms/ml or less)
CC(NCCCNC(=N)N)c1ccc(-n2cc3cc(-c4cc(CC5CC(CN)C5)cc(C(F)(F)F)c4)[nH]c3nc2=O)cc1 (centres unmarked) [Compound 350]	+ (a “+” indicates that the compound has an MIC value of 16 micrograms/ml or less)
C[C@H](N)c1ccc(-n2cc3cc(-c4cc(CCC5(CN)CC5)cc(C(F)(F)F)c4)[nH]c3nc2=O)cc1 [Compound 354]	− (a “−” indicates that the compound has an MIC value greater than 16 micrograms/ml)
C[C@H](N)CCCc1cc(OC(F)(F)F)cc(-c2cc3cn(-c4ccc(CN)cc4)c(=O)nc3[nH]2)c1 [Compound 355]	− (a “−” indicates that the compound has an MIC value greater than 16 micrograms/ml)
CC(N)CCCc1cc(OC(F)(F)F)cc(-c2cc3cn(-c4ccc(C(C)N)cc4)c(=O)nc3[nH]2)c1 (centres unmarked) [Compound 356]	− (a “−” indicates that the compound has an MIC value greater than 16 micrograms/ml)
NCc1ccc(-n2cc3cc(-c4cc(CCC5(CN)CC5)cc(SC(F)(F)F)c4)[nH]c3nc2=O)cc1 [Compound 357]	− (a “−” indicates that the compound has an MIC value greater than 16 micrograms/ml)
C[C@H](N)c1ccc(-n2cc3cc(-c4cc(CCC5(CN)CC5)cc(SC(F)(F)F)c4)[nH]c3nc2=O)cc1 [Compound 358]	− (a “−” indicates that the compound has an MIC value greater than 16 micrograms/ml)
CCN=C(N)NCCCNC(C)c1ccc(-n2cc3cc(-c4cc(CCCC(C)N)cc(Cl)c4F)[nH]c3nc2=O)cc1 (centres unmarked) [Compound 362]	+ (a “+” indicates that the compound has an MIC value of 16 micrograms/ml or less)
CC(N)CCCc1cc(Cl)c(F)c(-c2cc3cn(-c4ccc(C(C)NCCCNC(N)=NC(C)C)cc4)c(=O)nc3[nH]2)c1 (centres unmarked) [Compound 364]	+ (a “+” indicates that the compound has an MIC value of 16 micrograms/ml or less)
